Publication PMC6133161, “Thiazoles with cyclopropyl fragment as antifungal, anticonvulsant, and anti-Toxoplasma gondii agents: synthesis, toxicity evaluation, and molecular docking study” (Medicinal Chemistry Research, 2018)
≈ marks a conversion by molar mass, not a printed value.

Test system: C. pulcherrima
Assay: Broth microdilution MIC/MFC, clinical isolate
Assay type: cell-based
Conditions: C. pulcherrima clinical strain; read-out: MFC
Description: (§1) In the study of antifungal activity of the compounds 3a–3j, 15 clinical strains of different species of yeasts from Candida species, namely C. albicans, C. dubliniensis C. famata, C. inconspicua, C. krusei, C. tropicalis, C. glabrata, C. lambica, C. kefyr, C. lusitaniae, C. parapsilosis, C. guilliermondii, C. lusitaniae, C. pulcherrima and C. sake were also used. These fungi were isolated by the author (from Department of Pharmaceutical Microbiology of Medical University in Lublin, Poland) from different clinical materials, e.g., from upper respiratory tract of hospitalized patients including cancer patients (i.e., with non-small cell lung cancer or hematological malignancies). Some patients were after pre-operative or post-operative chemotherapy (treated with etoposide or cis-platin given in doses according to the standard procedures), patients with chronic hepatitis C (undergoing peginterferon and ribavirin therapy or without antiviral therapy), patients with diabetes, elderly people, aged of 65 years old or older, staying in close population, such as a care centre and people staying outside the home care. The Ethical Committee of the Medical University of Lublin approved the study protocol (No. KE-0254/75/2011). The isolates were identified by standard diagnostic methods—biochemical microtest, e.g., API 20C AUX, ID 32C, API Candida (bioMérieux) on the basis of assimilation of various substrates. All the used microbial cultures were first subcultured on nutrient agar or Sabouraud agar for bacteria and fungi, respectively. The RPMI 1640 with MOPS (for fungi) were inoculated with the suspensions of fungal species. Microbial suspensions were prepared in sterile saline (0.85% NaCl) with an optical density of 0.5 McFarland standard scale (Wiegand et al. [2008]). Samples containing examined compounds were dissolved in dimethyl sulfoxide (DMSO). Furthermore, fungal suspensions were put onto Petri dishes with solid media containing 2 mg/ml of the tested compounds followed incubation under appropriate conditions. The inhibition of microbial growth was judged by comparison with a control culture prepared without any sample tested. Nystatin (Sigma) was used as a reference antifungal compound. Subsequently MIC minimal inhibitory concentration (MIC) of the compounds was examined by the microdilution broth method, using their two-fold dilutions in RPMI 1640 broth with MOPS prepared in 96-well polystyrene plates. Final concentrations of the compounds ranged from 1000 to 0.0038 µg/ml. Microbial suspensions were prepared in sterile saline with an optical density of 0.5 McFarland standard. Next fungal suspension was added per each well containing broth and various concentrations of the examined compounds. After incubation, the MIC was assessed spectrophotometric as the lowest concentration of the samples showing complete fungal growth inhibition. Appropriate DMSO, growth and sterile controls were carried out. The medium with no tested substances was used as a control (Wiegand et al. [2008]). The minimal fungicidal concentration (MFC) are defined as the lowest concentration of the compounds that is required to kill a particular fungal species. MFC was determined by removing the culture using for MIC determinations from each well and spotting onto appropriate agar medium. The plates were incubated. The lowest compounds concentration with no visible growth observed was assessed as a fungicidal concentration. All the experiments were repeated three times and representative data are presented.
(§2) The MFC/MIC ratios were calculated in order to determine fungicidal (MFC/MIC ≤ 4) or fungistatic (MFC/MIC > 4) effect of the tested compounds (O’Donnell et al. [2010]).

SMILES | MFC [µg/mL]
COc1ccc(-c2csc(N/N=C/C3CC3)n2)cc1 [Compound 3f, (E)-2-(2-(Cyclopropylmethylene)hydrazinyl)-4-(4-methoxyphenyl)thiazole] | > 1000

Same assay, conditions: C. pulcherrima clinical strain; read-out: MIC

SMILES | MIC [µg/mL]
COc1ccc(-c2csc(N/N=C/C3CC3)n2)cc1 [Compound 3f, (E)-2-(2-(Cyclopropylmethylene)hydrazinyl)-4-(4-methoxyphenyl)thiazole] | 31.2 (≈ 114 µM)

Test system: C. lusitaniae
Assay: Broth microdilution MIC/MFC, clinical isolate
Assay type: cell-based
Conditions: Clavispora lusitaniae; C. lusitaniae clinical strain; read-out: MFC
Description: as §1, §2

SMILES | MFC [µg/mL]
COc1ccc(-c2csc(N/N=C/C3CC3)n2)cc1 [Compound 3f, (E)-2-(2-(Cyclopropylmethylene)hydrazinyl)-4-(4-methoxyphenyl)thiazole] | 0.48 (≈ 1.76 µM)

Same assay, conditions: Clavispora lusitaniae; C. lusitaniae clinical strain; read-out: MIC

SMILES | MIC [µg/mL]
COc1ccc(-c2csc(N/N=C/C3CC3)n2)cc1 [Compound 3f, (E)-2-(2-(Cyclopropylmethylene)hydrazinyl)-4-(4-methoxyphenyl)thiazole] | 0.12 (≈ 0.439 µM)

Test system: C. parapsilosis
Assay: Broth microdilution MIC/MFC, clinical isolate
Assay type: cell-based
Conditions: Lodderomyces parapsilosis; C. parapsilosis clinical strain; read-out: MFC
Description: as §1, §2

SMILES | MFC [µg/mL]
COc1ccc(-c2csc(N/N=C/C3CC3)n2)cc1 [Compound 3f, (E)-2-(2-(Cyclopropylmethylene)hydrazinyl)-4-(4-methoxyphenyl)thiazole] | 0.98 (≈ 3.59 µM)

Same assay, conditions: Lodderomyces parapsilosis; C. parapsilosis clinical strain; read-out: MIC

SMILES | MIC [µg/mL]
COc1ccc(-c2csc(N/N=C/C3CC3)n2)cc1 [Compound 3f, (E)-2-(2-(Cyclopropylmethylene)hydrazinyl)-4-(4-methoxyphenyl)thiazole] | 0.12 (≈ 0.439 µM)

Test system: C. dubliniensis
Assay: Broth microdilution MIC/MFC, clinical isolate
Assay type: cell-based
Conditions: Candida dubliniensis; C. dubliniensis clinical strain; read-out: MFC
Description: as §1, §2

SMILES | MFC [µg/mL]
COc1ccc(-c2csc(N/N=C/C3CC3)n2)cc1 [Compound 3f, (E)-2-(2-(Cyclopropylmethylene)hydrazinyl)-4-(4-methoxyphenyl)thiazole] | 0.06 (≈ 0.219 µM)

Same assay, conditions: Candida dubliniensis; C. dubliniensis clinical strain; read-out: MIC

SMILES | MIC [µg/mL]
COc1ccc(-c2csc(N/N=C/C3CC3)n2)cc1 [Compound 3f, (E)-2-(2-(Cyclopropylmethylene)hydrazinyl)-4-(4-methoxyphenyl)thiazole] | 0.015 (≈ 0.0549 µM)

Test system: C. famata
Assay: Broth microdilution MIC/MFC, clinical isolate
Assay type: cell-based
Conditions: Debaryomyces hansenii; C. famata clinical strain; read-out: MFC
Description: as §1, §2

SMILES | MFC [µg/mL]
COc1ccc(-c2csc(N/N=C/C3CC3)n2)cc1 [Compound 3f, (E)-2-(2-(Cyclopropylmethylene)hydrazinyl)-4-(4-methoxyphenyl)thiazole] | 7.81 (≈ 28.6 µM)

Same assay, conditions: Debaryomyces hansenii; C. famata clinical strain; read-out: MIC

SMILES | MIC [µg/mL]
COc1ccc(-c2csc(N/N=C/C3CC3)n2)cc1 [Compound 3f, (E)-2-(2-(Cyclopropylmethylene)hydrazinyl)-4-(4-methoxyphenyl)thiazole] | 0.48 (≈ 1.76 µM)

Test system: C. tropicalis
Assay: Broth microdilution MIC/MFC, clinical isolate
Assay type: cell-based
Conditions: Candida tropicalis; C. tropicalis clinical strain; read-out: MFC
Description: as §1, §2

SMILES | MFC [µg/mL]
COc1ccc(-c2csc(N/N=C/C3CC3)n2)cc1 [Compound 3f, (E)-2-(2-(Cyclopropylmethylene)hydrazinyl)-4-(4-methoxyphenyl)thiazole] | 0.98 (≈ 3.59 µM)

Same assay, conditions: Candida tropicalis; C. tropicalis clinical strain; read-out: MIC

SMILES | MIC [µg/mL]
COc1ccc(-c2csc(N/N=C/C3CC3)n2)cc1 [Compound 3f, (E)-2-(2-(Cyclopropylmethylene)hydrazinyl)-4-(4-methoxyphenyl)thiazole] | 0.06 (≈ 0.219 µM)

Test system: C. sake
Assay: Broth microdilution MIC/MFC, clinical isolate
Assay type: cell-based
Conditions: Fermentozyma sake; C. sake clinical strain; read-out: MFC
Description: as §1, §2

SMILES | MFC [µg/mL]
COc1ccc(-c2csc(N/N=C/C3CC3)n2)cc1 [Compound 3f, (E)-2-(2-(Cyclopropylmethylene)hydrazinyl)-4-(4-methoxyphenyl)thiazole] | 7.81 (≈ 28.6 µM)

Same assay, conditions: Fermentozyma sake; C. sake clinical strain; read-out: MIC

SMILES | MIC [µg/mL]
COc1ccc(-c2csc(N/N=C/C3CC3)n2)cc1 [Compound 3f, (E)-2-(2-(Cyclopropylmethylene)hydrazinyl)-4-(4-methoxyphenyl)thiazole] | 0.06 (≈ 0.219 µM)

Test system: C. albicans
Assay: Broth microdilution MIC/MFC, clinical isolate
Assay type: cell-based
Conditions: Candida albicans; C. albicans clinical strain; read-out: MFC
Description: as §1, §2

SMILES | MFC [µg/mL]
COc1ccc(-c2csc(N/N=C/C3CC3)n2)cc1 [Compound 3f, (E)-2-(2-(Cyclopropylmethylene)hydrazinyl)-4-(4-methoxyphenyl)thiazole] | 0.98 (≈ 3.59 µM)

Same assay, conditions: Candida albicans; C. albicans clinical strain; read-out: MIC

SMILES | MIC [µg/mL]
COc1ccc(-c2csc(N/N=C/C3CC3)n2)cc1 [Compound 3f, (E)-2-(2-(Cyclopropylmethylene)hydrazinyl)-4-(4-methoxyphenyl)thiazole] | 0.24 (≈ 0.878 µM)

Test system: C. kefyr
Assay: Broth microdilution MIC/MFC, clinical isolate
Assay type: cell-based
Conditions: C. kefyr clinical strain
Description: as §1, §2

SMILES | MFC/MIC
COc1ccc(-c2csc(N/N=C/C3CC3)n2)cc1 [Compound 3f, (E)-2-(2-(Cyclopropylmethylene)hydrazinyl)-4-(4-methoxyphenyl)thiazole] | 4

Same assay, conditions: Kluyveromyces marxianus; C. kefyr clinical strain; read-out: MFC

SMILES | MFC [µg/mL]
COc1ccc(-c2csc(N/N=C/C3CC3)n2)cc1 [Compound 3f, (E)-2-(2-(Cyclopropylmethylene)hydrazinyl)-4-(4-methoxyphenyl)thiazole] | 7.81 (≈ 28.6 µM)

Same assay, conditions: Kluyveromyces marxianus; C. kefyr clinical strain; read-out: MIC

SMILES | MIC [µg/mL]
COc1ccc(-c2csc(N/N=C/C3CC3)n2)cc1 [Compound 3f, (E)-2-(2-(Cyclopropylmethylene)hydrazinyl)-4-(4-methoxyphenyl)thiazole] | 1.95 (≈ 7.13 µM)

Test system: C. inconspicua
Assay: Broth microdilution MIC/MFC, clinical isolate
Assay type: cell-based
Conditions: Pichia inconspicua; C. inconspicua clinical strain; read-out: MFC
Description: as §1, §2

SMILES | MFC [µg/mL]
COc1ccc(-c2csc(N/N=C/C3CC3)n2)cc1 [Compound 3f, (E)-2-(2-(Cyclopropylmethylene)hydrazinyl)-4-(4-methoxyphenyl)thiazole] | 0.98 (≈ 3.59 µM)

Same assay, conditions: Pichia inconspicua; C. inconspicua clinical strain; read-out: MIC

SMILES | MIC [µg/mL]
COc1ccc(-c2csc(N/N=C/C3CC3)n2)cc1 [Compound 3f, (E)-2-(2-(Cyclopropylmethylene)hydrazinyl)-4-(4-methoxyphenyl)thiazole] | 0.03 (≈ 0.11 µM)

Test system: C. krusei
Assay: Broth microdilution MIC/MFC, clinical isolate
Assay type: cell-based
Conditions: Pichia kudriavzevii; C. krusei clinical strain; read-out: MFC
Description: as §1, §2

SMILES | MFC [µg/mL]
COc1ccc(-c2csc(N/N=C/C3CC3)n2)cc1 [Compound 3f, (E)-2-(2-(Cyclopropylmethylene)hydrazinyl)-4-(4-methoxyphenyl)thiazole] | 0.015 (≈ 0.0549 µM)

Same assay, conditions: Pichia kudriavzevii; C. krusei clinical strain; read-out: MIC

SMILES | MIC [µg/mL]
COc1ccc(-c2csc(N/N=C/C3CC3)n2)cc1 [Compound 3f, (E)-2-(2-(Cyclopropylmethylene)hydrazinyl)-4-(4-methoxyphenyl)thiazole] | 0.015 (≈ 0.0549 µM)

Test system: C. glabrata
Assay: Broth microdilution MIC/MFC, clinical isolate
Assay type: cell-based
Conditions: Nakaseomyces glabratus; C. glabrata clinical strain; read-out: MFC
Description: as §1, §2

SMILES | MFC [µg/mL]
COc1ccc(-c2csc(N/N=C/C3CC3)n2)cc1 [Compound 3f, (E)-2-(2-(Cyclopropylmethylene)hydrazinyl)-4-(4-methoxyphenyl)thiazole] | > 1000

Same assay, conditions: Nakaseomyces glabratus; C. glabrata clinical strain; read-out: MIC

SMILES | MIC [µg/mL]
COc1ccc(-c2csc(N/N=C/C3CC3)n2)cc1 [Compound 3f, (E)-2-(2-(Cyclopropylmethylene)hydrazinyl)-4-(4-methoxyphenyl)thiazole] | 31.2 (≈ 114 µM)

Test system: C. lambica
Assay: Broth microdilution MIC/MFC, clinical isolate
Assay type: cell-based
Conditions: Pichia fermentans; C. lambica clinical strain; read-out: MFC
Description: as §1, §2

SMILES | MFC [µg/mL]
COc1ccc(-c2csc(N/N=C/C3CC3)n2)cc1 [Compound 3f, (E)-2-(2-(Cyclopropylmethylene)hydrazinyl)-4-(4-methoxyphenyl)thiazole] | > 1000

Same assay, conditions: Pichia fermentans; C. lambica clinical strain; read-out: MIC

SMILES | MIC [µg/mL]
COc1ccc(-c2csc(N/N=C/C3CC3)n2)cc1 [Compound 3f, (E)-2-(2-(Cyclopropylmethylene)hydrazinyl)-4-(4-methoxyphenyl)thiazole] | 31.2 (≈ 114 µM)

Test system: C. guilliermondii
Assay: Broth microdilution MIC/MFC, clinical isolate
Assay type: cell-based
Conditions: Meyerozyma guilliermondii; C. guilliermondii clinical strain; read-out: MFC
Description: as §1, §2

SMILES | MFC [µg/mL]
COc1ccc(-c2csc(N/N=C/C3CC3)n2)cc1 [Compound 3f, (E)-2-(2-(Cyclopropylmethylene)hydrazinyl)-4-(4-methoxyphenyl)thiazole] | 7.81 (≈ 28.6 µM)

Same assay, conditions: Meyerozyma guilliermondii; C. guilliermondii clinical strain; read-out: MIC

SMILES | MIC [µg/mL]
COc1ccc(-c2csc(N/N=C/C3CC3)n2)cc1 [Compound 3f, (E)-2-(2-(Cyclopropylmethylene)hydrazinyl)-4-(4-methoxyphenyl)thiazole] | 0.48 (≈ 1.76 µM)

Test system: Toxoplasma gondii RH strain
Assay: [3H]-uracil incorporation assay in VERO host cells
Conditions: Toxoplasma gondii, Vero, read-out: Proliferation of Toxoplasma gondii RH strain ± SD

SMILES | activity at 0.98 µg/mL [%] | activity at 1.95 µg/mL [%] | activity at 3.91 µg/mL [%] | activity at 7.81 µg/mL [%] | activity at 15.63 µg/mL [%] | activity at 20 µg/mL [%] | activity at 25 µg/mL [%] | activity at 31.25 µg/mL [%]
COc1ccc(-c2csc(N/N=C/C3CC3)n2)cc1 [Compound 3f, (E)-2-(2-(Cyclopropylmethylene)hydrazinyl)-4-(4-methoxyphenyl)thiazole] | 89.61 ± 0.77 | 84.2 ± 5.47 | 79.2 ± 6.07 | 86.2 ± 6.35 | 63 ± 4.88 | 58.5 ± 3.72 | 57.8 ± 6.09 | 68 ± 5.37
